The first test deals with osteoclast differentiation. Briefly: Inhibitory effects on osteoclast differentiation (co-culture of bone marrow cells with osteoblast, TRAP staining). The conditions noted are these: Mus musculus, Osteoclast, 168 h, read-out: % inhibitory activity on osteoclastogenesis. The format is cell-based, mice. The protocol:
The effect of benzamidine derivatives of the present invention on osteoclast proliferation and differentiation process was evaluated via co-culture with osteoblast.
Tibia and Femora were aseptically ectomized from male ddY mice of 6-8 weeks to harvest bone marrow cells by using a syringe (21G, Korea Green Cross).
The bone marrow cells were suspended in 5 mL α-MEM medium (Gibco BRL Co.) containing sodium bicarbonate (2.0 g/L), streptomycin (100 mg/L) and penicillin ([…]). The harvested cells were centrifuged at 600×g for 5 mins to collect the whole quantity. To remove the red blood cells within bone marrow cells, 3 mL of Tris HCl (0.83% NH4Cl, pH7.5) was added and well mixed. After centrifuging above cells, the numbers of bone marrow cells were counted and then, the bone marrow cells were immediately used for co-culture system with osteoblast.
The calvaria were aseptically ectomized from neonate ICR mice of 1˜2 days, washed with PBS solution and incubated with a mixture of enzyme solution (0.2% collagenase and 0.1% dispase) at 37° C. gentle shaker. This procedure was sequentially repeated (10, 10, 10, 20, 20 and 20 mins), and then the calvaria cells having the characteristics of osteoblast mostly released from III-VI digestion groups were collected and washed with the medium (serum-free α-MEM). The washed cells were cultivated in α-MEM medium containing 10% FBS for 2˜3 days. After subculturing, these cells were used for this experiment, and diluted to reach the concentration of 1×10^6 cell/mL for storage at −70° C.
Benzamidine derivatives of the present invention were dissolved in a sterile distilled water or ethanol to make desired concentrations following dilution. The final volume of specimen added to the medium was determined at the ratio of 1:1000.
Bone marrow cells prepared, in the above and osteoblast from calvaria were co-cultured for osteoclast differentiation. Both bone marrow cells (25,000 cells/cm^2) and osteoblast (10,000 cells/cm^2) were plated on a 96 well plate in α-MEM medium containing FBS with specimen, and then cultured with test materials for 7 days. Differentiation factors, such as dexamethasone (10^−7M) and vitamin D3 (10^−8M), were also continuously added to the medium from the first day of cultivation. The medium was changed with fresh media containing a mixture of specimens and differentiation factors every 2˜3 day.
TRAP was used as a marker to measure osteoclast in consideration of its characteristics showing a positive reaction to TRAP staining solution. TRAP staining solution was prepared in a manner that 5 mg of naphtol AS-MS phosphate (sigma N-4875), a substrate and 25 mg of coloring agent (Fast Red Violet LB salt) were dissolved in N,N-dimethylformamide (about 0.5 mL), 0.1N NaHCO3 buffer solution (50 mL) containing 50 mM tartaric acid was added, and the reaction mixture was stored at refrigerator prior to use.
After culturing the cells for 7 days, the medium was removed from the wells, the cells were once washed with PBS solution and fixed to PBS containing 10% formalin for 2˜5 mins. The cells were fixed again in a mixed solution of ethanol and acetone (1/1) for about 1 min, and dried off. The cells were further treated by TRAP staining solution for 15 mins and washed with PBS. The experimental results were measured by counting the number of osteoclasts with 3 or more nuclei showing TRAP-positive reaction under a microscopic examination. Each of tests was confirmed over three times for gaining more reliable data.
As shown in the following table 7, the inhibitory effect of each experimental group on the differentiation of osteoclast versus controls was expressed by inhibitory percentage value.
As for `CN(CCN1CCOCC1)c1nc(-c2ccc(OCCCCCOc3ccc(C(=N)NO)cc3)cc2)c(C2CCCC2)s1` [Example 153, N-hydroxy-4-(5-[4-(5-cyclopentyl-2-[methyl-(2-morpholinoethyl)amino]-1,3-thiazol-4-yl)phenoxy]pentoxy)-benzamidine], the inhibition at 1 µM turned out to be 96.4%.

The test is the same for the next values; noted with them: Mus musculus, Osteoclast, 168 h; 1 m; co-culture of bone marrow cells and osteoblast, 7 days, TRAP-positive osteoclasts versus controls; read-out: % inhibitory activity on osteoclastogenesis.
With `CCCNc1nc(-c2ccc(OCCCCCOc3ccc(C(=N)NO)cc3)cc2)c(C2CCCC2)s1` [Example 113, N-hydroxy-4-(5-[4-(5-cyclopentyl-2-propylamino-1,3-thiazol-4-yl)phenoxy]pentoxy)-benzamidine], the inhibition at 1 µM is 86.7%.
Still for that read-out and setting: the same measure for `CC(C)c1sc(NCc2cccnc2)nc1-c1ccc(OCCCCCOc2ccc(C(=N)NO)cc2)cc1` [Example 114, N-hydroxy-4-(5-[4-(5-isopropyl-2-[(pyridin-3-yl-methyl)amino]-1,3-thiazol-4-yl)phenoxy]pentoxy)-benzamidine]: 50.9%; for `CNc1nc(-c2ccc(OCCCCCOc3ccc(C(=N)NO)cc3)cc2)cs1` [Example 116, N-hydroxy-4-(5-[4-(2-methylamino-1,3-thiazol-4-yl)phenoxy]pentoxy)-benzamidine]: 51.3%; for `COCCN(CCOC)c1nc(-c2ccc(OCCCCCOc3ccc(C(=N)NO)cc3)cc2)c(C)s1` [Example 122, N-hydroxy-4-(5-[4-(2-(bis-(2-methoxyethyl)-amino)-5-methyl-1,3-thiazol-4-yl)phenoxy]pentoxy)-benzamidine]: 55.8%.
Take `Cc1sc(N(C)CCN2CCOCC2)nc1-c1ccc(OCCCCCOc2ccc(C(=N)NO)cc2)cc1` [Example 123, N-hydroxy-4-(5-[4-(5-methyl-2-(methyl-(2-morpholinoethyl)-amino)-1,3-thiazol-4-yl)phenoxy]pentoxy)-benzamidine]: the inhibition at 1 µM was determined as 26.3%.
For the compound `CCN(Cc1ccccc1)c1nc(-c2ccc(OCCCCCOc3ccc(C(=N)NO)cc3)cc2)c(C)s1` [Example 127, N-hydroxy-4-(5-[4-(2-(benzyl-ethyl-amino)-5-methyl-1,3-thiazol-4-yl)phenoxy]pentoxy)-benzamidine], the inhibition at 1 µM stood at 41.5%.
In the case of `Cc1sc(N(CCO)CCO)nc1-c1ccc(OCCCCCOc2ccc(C(=N)NO)cc2)cc1` [Example 128, N-hydroxy-4-(5-[4-(2-(bis-(2-hydroxyethyl)-amino)-5-methyl-1,3-thiazol-4-yl)phenoxy]pentoxy)-benzamidine], the inhibition at 1 µM came to 75.5%.
The same measure, in the same setting: the same measure for `CCc1sc(N(C)CCN2CCOCC2)nc1-c1ccc(OCCCCCOc2ccc(C(=N)NO)cc2)cc1` [Example 131, N-hydroxy-4-(5-[4-(5-ethyl-2-(methyl-(2-morpholinoethyl)-amino)-1,3-thiazol-4-yl)phenoxy]pentoxy)-benzamidine]: 69%.
The same measure, in the same setting: under `CCc1sc(N(CC)Cc2ccccc2)nc1-c1ccc(OCCCCCOc2ccc(C(=N)NO)cc2)cc1` [Example 135, N-hydroxy-4-(5-[4-(2-(benzyl-ethyl-amino)-5-ethyl-1,3-thiazol-4-yl)phenoxy]pentoxy)-benzamidine] stands 48.6%; under `CC(C)c1sc(N(C)CCO)nc1-c1ccc(OCCCCCOc2ccc(C(=N)NO)cc2)cc1` [Example 140, N-hydroxy-4-(5-[4-(2-((2-hydroxyethyl)-methyl-amino)-5-isopropyl-1,3-thiazol-4-yl)phenoxy]pentoxy)-benzamidine], 18.9%.
On the same count and under the same terms, under `CCS(=O)(=O)N(C)c1nc(-c2ccc(OCCCCCOc3ccc(C(=N)NO)cc3)cc2)c(C(C)C)s1` [Example 142, N-hydroxy-4-(5-[4-(2-(ethanesulfonyl-methyl-amino)-5-isopropyl-1,3-thiazol-4-yl)phenoxy]pentoxy)-benzamidine] stands 54.1%; under `CCCCc1sc(N(C)CCO)nc1-c1ccc(OCCCCCOc2ccc(C(=N)NO)cc2)cc1` [Example 143, N-hydroxy-4-(5-[4-(5-butyl-2-((2-hydroxyethyl)-methyl-amino)-1,3-thiazol-4-yl)phenoxy]pentoxy)-benzamidine], 69.5%; under `CCCCc1sc(N(C)CCN2CCOCC2)nc1-c1ccc(OCCCCCOc2ccc(C(=N)NO)cc2)cc1` [Example 144, N-hydroxy-4-(5-[4-(5-butyl-2-(methyl-(2-morpholinoethyl)amino)-1,3-thiazol-4-yl)phenoxy]pentoxy)-benzamidine], 94.4%.
On to `CN(CCN1CCOCC1)c1nc(-c2ccc(OCCCCCOc3ccc(C(=N)NO)cc3)cc2)c(CC2CCCC2)s1` [Example 148, N-hydroxy-4-(5-[4-(5-cyclopentylmethyl-2-(methyl-(2-morpholinoethyl)amino)-1,3-thiazol-4-yl)phenoxy]pentoxy)-benzamidine], for which the inhibition at 1 µM turned out to be 90.1%.
For the compound `CCCN(CCC)c1nc(-c2ccc(OCCCCCOc3ccc(C(=N)NO)cc3)cc2)c(CC2CCCC2)s1` [Example 149, N-hydroxy-4-(5-[4-(5-cyclopentylmethyl-2-dipropylamino-1,3-thiazol-4-yl)phenoxy]pentoxy)-benzamidine], the inhibition at 1 µM came out at 79.2%.
Same read-out and setting: the same measure for `CCCCc1sc(N(CC)CC)nc1-c1ccc(OCCCCCOc2ccc(C(=N)NO)cc2)cc1` [Example 150, N-hydroxy-4-(5-[4-(5-butyl-2-diethylamino-1,3-thiazol-4-yl)phenoxy]pentoxy)-benzamidine]: 95.4%.
Consider `CC(C)Cc1sc(N(C)CCN2CCOCC2)nc1-c1ccc(OCCCCCOc2ccc(C(=N)NO)cc2)cc1` [Example 154, N-hydroxy-4-(5-[4-(5-isobutyl-2-[methyl-(2-morpholinoethyl)amino]-1,3-thiazol-4-yl)phenoxy]pentoxy)-benzamidine], for which the inhibition at 1 µM was determined as 9.3%.
The same measure, in the same setting: under `CCN(CC)c1nc(-c2ccc(OCCCCCOc3ccc(C(=N)NO)cc3)cc2)c(C2CCCC2)s1` [Example 156, N-hydroxy-4-(5-[4-(5-cyclopentyl-2-diethylamino-1,3-thiazol-4-yl)phenoxy]pentoxy)-benzamidine] stands 15.6%; under `CCCN(CCC)c1nc(-c2ccc(OCCCCCOc3ccc(C(=N)NO)cc3)cc2)c(C(C)C)s1` [Example 157, N-hydroxy-4-(5-[4-(5-isopropyl-2-dipropylamino-1,3-thiazol-4-yl)phenoxy]pentoxy)-benzamidine], 92.3%.
On the same count and under the same terms, the same measure for `CCN(CC)c1nc(-c2ccc(OCCCCCOc3ccc(C(=N)NO)cc3)cc2)c(CC2CCCC2)s1` [Example 160, N-hydroxy-4-(5-[4-(5-cyclopentylmethyl-2-diethylamino-1,3-thiazol-4-yl)phenoxy]pentoxy)-benzamidine]: 83.7%.
Still for that read-out and setting: the same measure for `CC(C)c1sc(N(C)C)nc1-c1ccc(OCCCCCOc2ccc(C(=N)NO)cc2)cc1` [Example 161, N-hydroxy-4-(5-[4-(5-isopropyl-2-dimethylamino-1,3-thiazol-4-yl)phenoxy]pentoxy)-benzamidine]: 89.1%.

The test is the same for the next values; noted with them: co-culture of bone marrow cells and osteoblast, 7 days, TRAP-positive osteoclasts versus controls.
As to `CCc1sc(NCc2cccnc2)nc1-c1ccc(OCCCCCOc2ccc(C(=N)NO)cc2)cc1` [Example 117], the “% inhibitory activity on osteoclastogenesis” value amounted to 2.7%.
Still for that read-out and setting: under `CCc1sc(N(Cc2cccnc2)Cc2cccnc2)nc1-c1ccc(OCCCCCOc2ccc(C(=N)NO)cc2)cc1` [Example 137] stands 62.7%.

The record behind these values is patent publication US8178688B2, “Benzamidine derivatives, process for the preparation thereof and pharmaceutical composition comprising the same” (Dong Wha Pharmaceutical Co., Ltd., priority 2004, dated 2012).
